Laboratory results reported in patent US20230123585A1, “COMPOSITIONS AND METHODS FOR TREATING OR PREVENTING CANCER USING DEUBIQUITINASE INHIBITORS” (The University of Chicago, priority 2020, published 2023).
Peptide text beside a SMILES is read from it. * marks the point of attachment. Cbz = O=C(OCc1ccccc1)*

Columns and labels:
[1] = system: A375 cells; experiment: Cell viability of control or METTL3 knockdown A375 cells after treatment with DNA damage repair modulators; format: cell-based, human; settings: METTL3 knockdown versus control
Method: FIGS. 24A-24E: The synergistic damage effects of METTL3 knockdown with DNA damage repair modulators or inhibitors of specific DNA repair pathways in cancer cells. […] Error bars indicate mean±s.e.m. P values were determined by two-tailed t-test. (E) Analysis of dsDNA break in the control or METTL3 knockdown colon cancer cells. TUNEL assay was performed.

[2] = system: ubiquitination of METTL3; experiment: Ubiquitination of METTL3 in A375 cells transfected with HA-ubiquitin (IP anti-METTL3, immunoblot anti-HA); format: cell-based, human; settings: 10 μM MG-132 and 10 μM EOAI3402143 or 30 μM vialinin A for 8 h
Method: (§1) FIGS. 11A-11G: USP5 is Required for ERK-Mediated METTL3 Stabilization. (A) A375 cells transfected with HA-ubiquitin (ub) were treated with 10 μM MG-132 and MEK inhibitor PD0325901 for 8 h. The ubiquitination of METTL3 was detected by IP with anti-METTL3 and immunoblot with anti-HA. (B) After 8 h treatment with 10 μM PD0325901 with or without 10 μM MG-132, cell lysates from A375 cells were analyzed by immunoblot. (C) A375 cells were treated with various concentrations of PD0325901 for 1 h. Cell lysates were subjected to IP with METTL3 antibody followed by immunoblot. (D) 293T cells transfected as indicated were subjected to IP/immunoblot analysis. (E) Immunofluorescence analysis of myc-METTL3 (green) in mESC stable transfectants. DAPI (blue) was used to mark the nucleus. (F) Lysates of 293T cells transfected as indicated were subjected to IP with anti-Flag antibody followed by immunoblot. (G) Immunofluorescence analysis of 293T cells co-transfected with myc-METTL3 (green), Flag-USP5 (red) with or without constitutively active B-RAF.
FIGS. 14A-14I: Phosphorylation of the m^6A Methyltransferase Complex May Affect Tumorigenesis. […] (B) LC-MS/MS quantification of the m^6A/A ratio in mRNA of melanoma cell lines. (C) After 8 h treatment with 10 μM PD0325901 or 0.1 μM tramentib, cell lysates from HCT-116 cells were analyzed by immunoblot. […] The ubiquitination of METTL3 was detected by IP with anti-METTL3 and immunoblot with anti-HA. (F) After 8 hr treatment with 10 μM EOAI3402143 (EOAI) or 30 μM vialinin A, cell lysates from HCT-116 cells were analyzed by immunoblot. […] (I) LC-MS/MS quantification of the m^6A/A ratio in mRNA of breast cancer cell lines.
(§2) Immunoprecipitation, immunoblotting, and in vitro kinase assay. […] Primary antibodies were detected by HRP-linked secondary antibodies (Cell Signaling) together with SuperSignal West Pico Plus chemiluminescent substrate (Thermo Scientific) and imaged in a FluorChem R system (ProteinSimple).

[3] = system: METTL3 / m^6A methyltransferase complex in A375 cells; experiment: Immunoblot of METTL3 / m^6A methyltransferase complex protein in A375 cell lysates; format: cell-based, human
Method: (§3) FIGS. 6A-6H: Phosphorylation of the m^6A Methyltransferase Complex May Affect Tumorigenesis. (A) Lysates of A375 stable transfectants harvested at different time points after treatment with cycloheximide (CHX) 10 μg/ml were analyzed by immunoblot. (B) LC-MS/MS quantification of the m^6A/A ratio in mRNA of A375 stable transfectants. (C) After 8 h treatment with 10 μM PD0325901 or 0.1 μM tramentib, cell lysates from A375 cells were analyzed by immunoblot. (D) LC-MS/MS quantification of the m^6A/A ratio in mRNA of A375 cells treated with 10 μM PD0325901 or 0.1 μM tramentib for 48 h. (E) After 8hr treatment with 10 μM EOAI3402143 (EOAI) or 30 μM vialinin A , cell lysates from A375 cells were analyzed by immunoblot. (F) A375 stable transfectants as indicated were treated with 3 μM EOAI3402143 (EOAI) or 10 μM vialinin A before measuring cell viability by SRB assay. Data are presented as relative to the R-WT cells without drug treatment (n=3 per group, data represent mean±SEM). (G) Immunofluorescence analysis of METTL3 (green) in SKBR3 cells treated with 1 μM tucatinib and 1 μM lapatinib for 8 hr. DAPI (blue) was used to mark the nucleus. (H) LC-MS/MS quantification of the m^6A/A ratio in mRNA of SKBR3 and BT474 cells treated with 1 μM tucatinib and 1 μM lapatinib for 48 h. (See also FIG. 14.)
as §1
Immunoprecipitation, immunoblotting, and in vitro kinase assay. Immunoprecipitation (IP) and immunoblotting (IB) were performed as previously described (Sun et al., 2016). In brief, protein samples were isolated from respective cells by lysis in RIPA buffer (1% Triton X-100, 150 mM NaCl, 20 mM Na2PO4, pH 7.4) containing Halt Protease and Phosphatase Inhibitor Cocktail (Thermo Scientific). Subsequently, a BCA assay (Thermo Scientific) was used to determine the protein concentrations. For IP, indicated antibody and protein A/G magnetic beads (Thermo Scientific) were incubated with lysate at 4° C. overnight followed by washing and elution with sample buffer. Equal amounts of protein were separated by SDS-PAGE followed by wet transfer to PVDF membranes. Blots were blocked with 5% non-fat milk or BSA and incubated with respective primary antibody at 4° C. overnight. Primary antibodies were detected by HRP-linked secondary antibodies (Cell Signaling) together with SuperSignal West Pico Plus chemiluminescent substrate (Thermo Scientific) and imaged in a FluorChem R system (ProteinSimple).

[4] = system: METTL3 in SKBR3 cells; experiment: Immunofluorescence analysis of METTL3 in SKBR3 cells; format: cell-based; settings: 1 μM, 8 hr
Method: as §3, with “(See also FIG. 14.)” left out
Confocal Microscopy. […] Confocal fluorescence images were captured using Olympus FV1000 confocal spectral microscope.

[5] = system: mRNA m^6A in SKBR3 and BT474 cells; experiment: LC-MS/MS quantification of the m^6A/A ratio in mRNA of SKBR3 and BT474 cells; format: cell-based; settings: 1 μM, 48 h
Method: as §3, with “(F) A375 stable transfectants as indicated were treated with 3 μM EOAI3402143 (EOAI) or 10 μM vialinin A before measuring cell viability by SRB assay. Data are presented as relative to the R-WT cells without drug treatment (n=3 per group, data represent mean±SEM). (G) Immunofluorescence analysis of METTL3 (green) in SKBR3 cells treated with 1 μM tucatinib and 1 μM lapatinib for 8 hr. DAPI (blue) was used to mark the nucleus.” left out, “(See also FIG. 14.)” left out
LC-MS/MS quantification of m^6A in poly(A) RNA. mRNA was extracted from the total RNA using 2 rounds of the Dynabeads mRNA purification kit. […] The nucleosides were quantified by using the nucleoside-to-base ion mass transitions of 282 to 150 (m^6A) and 268 to 136 (A). Quantification was carried out by comparison with a standard curve obtained from pure nucleoside. The ratio of m^6A to A was calculated based on the calibrated concentrations (Liu et al., 2018).

[6] = system: p-METTL3 (S43); experiment: p-METTL3 (S43) in A375 cells, IP with METTL3 antibody followed by immunoblot; format: cell-based, human; settings: 1 h, 1 μM dabrafenib, 1 μM PLX-4720, 10 μM PD0325901, 0.1 μM trametinib
Source text: FIGS. 10A-10G: ERK Interacts and Phosphorylates METTL3 and WTAP. (A-C) Mass spectrometry detected S43, S50 and S525 phosphorylation in METTL3 in 293T cells co-transfected with B-RAF V600E. (D) Characterization of anti-p-METTL3 (S43) antibodies of 293T cells transfected as indicated with MEK S218D/S222D, HER2 V659E, B-RAF V600E and WT or non-phosphorylatable alanine mutant (3A) METTL3. (E) The METTL3 S43 phosphorylation was identified by in vitro kinase assays, in which purified METTL3-METTL14 were incubated with activated ERK2. (F) A375 cells were treated with 1 μM dabrafenib, 1 μM PLX-4720, 10 μM PD0325901, 0.1 μM tramentib for 1 h. Cell lysates were subjected to IP with METTL3 antibody followed by immunoblot. (G) Phos-tag SDS-PAGE showing the phosphorylation status of WT or non-phosphorylatable alanine mutants of mice WTAP in 293T cells co-transfected with B-RAF. 2A, T298A/S341A.
To investigate METTL3 phosphorylation by ERK inside cells, a polyclonal antibody was generated that targets S43-phosphorylated METTL3. This antibody recognizes S43-phosphorylated METTL3 but not a mutant form of METTL3, METTL3 3A, with all three phosphorylation serine sites replaced with alanine (FIG. 10D). This P-S43 antibody was then used as a tool to monitor METTL3 phosphorylation. […] Furthermore, the p-METTL3 (S43) in A375 cells, a human melanoma cell line with constitutively active ERK due to a B-RAF V600E mutation, was abrogated by treatments with B-RAF inhibitors (dabrafenib and PLX4720) or MEK inhibitors (PD0325901 and trametinib) (FIG. 10F), supporting that S43 phosphorylation on METTL3 is installed through the ERK pathway.
as §2, with “assay. Immunoprecipitation (IP) and immunoblotting (IB) were performed as previously described (Sun et al., 2016).” for “assay.”

## Bleomycin
[1]
  effect on cell viability of DNA damage agent with METTL3 knockdown: synergistic effects

## O=C(Cc1ccccc1)Oc1c(OC(=O)Cc2ccccc2)c(-c2ccc(O)cc2)c(O)c(O)c1-c1ccc(O)cc1 [vialinin]
[2]
  ubiquitination of METTL3: increased
[3]; A375 cells (also HCT-116, FIG. 14F), 8 hr, 10 μM EOAI3402143 or 30 μM vialinin A
  METTL3 protein level: decreased

## CS(=O)(=O)CCNCc1ccc(-c2ccc3ncnc(Nc4ccc(OCc5cccc(F)c5)c(Cl)c4)c3c2)o1 [lapatinib]
[4]
  METTL3 protein level: reduce
[5]
  cellular mRNA m^6A methylation (m^6A/A ratio): reduce

## CCCS(=O)(=O)Nc1ccc(F)c(C(=O)c2c[nH]c3ncc(Cl)cc23)c1F [PLX4720]
[6]
  p-METTL3 (S43): abrogated

## CC(C)(C)c1nc(-c2cccc(NS(=O)(=O)c3c(F)cccc3F)c2F)c(-c2ccnc(N)n2)s1 [dabrafenib]
[6]
  p-METTL3 (S43): abrogated

## Cc1cc(Nc2ncnc3ccc(NC4=NC(C)(C)CO4)cc23)ccc1Oc1ccn2ncnc2c1 [tucatinib]
[4]
  METTL3 protein level: reduce
[5]
  cellular mRNA m^6A methylation (m^6A/A ratio): reduce

## C[C@@H]1COCCN1c1cc(C2([S@](C)(=N)=O)CC2)nc(-c2cc[nH]c3nccc2-3)n1 [AZD6738, ceralasertib]
[1]
  cell death of METTL3 knockdown cells versus controls after DNA damage repair inhibitor: more severe cell death

## CC(C)C[C@@H](C=O)NC(=O)[C@H](CC(C)C)NC(=O)[C@H](CC(C)C)NC(=O)OCc1ccccc1 [MG132] (Cbz-Leu-Leu-Leu-aldehyde)
[3]; A375 cells, 10 μM PD0325901 with 10 μM MG-132, 8 h
  PD0325901-induced degradation of METTL3 on addition of proteasome inhibitor: restored

## O=c1[nH]cc(F)c(=O)[nH]1 [5-FU]
[1]
  effect on cell viability of DNA damage agent with METTL3 knockdown: synergistic effects

## C[C@]1(c2nc3c(C(N)=O)cccc3[nH]2)CCCN1 [veliparib]
[1]
  cell death of METTL3 knockdown cells versus controls after DNA damage repair inhibitor: more severe cell death
